Source: PMC10983001, “Development of Cytotoxic GW7604-Zeise’s Salt Conjugates as Multitarget Compounds with Selectivity for Estrogen Receptor- Positive Tumor Cells” (Journal of Medicinal Chemistry, 2024)

What was measured:
[1] = system: ERα in MCF-7 cells; assay: Western blot analysis of ER downregulation; assay type: cell-based, human; conditions: MCF-7, 20 μM, 24 h
Experimental: The exponentially growing cells were seeded at a density of 2.5 × 10^6 (MCF-7) and 3.0 × 10^6 (SKBr3) cells into 75 cm^2 flasks. The cells were incubated for 24 h in a humidified atmosphere (5% CO2/95% air) at 37 °C. For downregulation experiments, a stock solution of GW7604-Pent-PtCl3 in DMF was freshly prepared and diluted with DMEM containing 10% FCS to the desired concentration [final DMF concentration of 0.1% (v/v), final complex concentration of 20 μM]. The medium in the flasks was replaced with fresh cell culture medium containing the compound, and the flasks were incubated in a humidified atmosphere at 37 °C for 24 h. Afterward, cells were harvested (cell scratcher), and samples were lysed using a modified radio immunoprecipitation assay buffer [50 mM of TRIS (pH = 8.0), 150 mM NaCl, 0.5% NP-40, 50 mM NaF, 1 mM […], 1 mM phenylmethylsulfonyl fluoride, and protease inhibitors (EDTA-free; Roche, Basel, Switzerland)]. Total protein concentration was determined by employing the Bradford assay as described above, and samples were analyzed on the JESS ProteinSimple (Bio-Techne, Minneapolis, MN, USA) according to the manufacturer’s protocol. The following antibodies were used: GAPDH (no. 2118S, cell signaling), ERα (no. 8644S, cell signaling), and COX-2 (no. 12282, cell signaling). All primary antibodies were diluted with antibody diluents provided by ProteinSimple.

[2] = system: SKBr3 cells; assay: MTT assay of metabolic activity, SKBr3; assay type: cell-based, human; conditions: 72 h, MTT
Experimental: The GW7604-Alk-PtCl3 complexes (with exclusion of GW7604-Prop-PtCl3) were investigated for cytotoxic effects in SKBr3 (ER-negative, COX-2-positive, Figure 6), MCF-7 (ERα-positive, COX-negative, Figure 6), and noncancerous TSA-201 (human embryonal kidney) cells at concentrations of 10–30 μM using an established MTT (3-(4,5-dimethylthiazol-2-yl)-2,5-diphenyltetrazolium bromide) assay.[60],[69]
After incubation for 72 h, the amounts of surviving, metabolically active cells were quantified based on their ability to transform the water-soluble yellow dye MTT to a purple formazan, which can be analyzed by UV–vis spectroscopy.
The exponentially growing cells were seeded at a density of 1750 (MCF-7), 2000 (SKBr3), and 1250 (TSA-201) cells/well into clear flat-bottom 96-well plates in triplicate. Following 24 h of incubation at 37 °C in a humidified atmosphere (5% CO2/95% air), the compounds [freshly prepared stock solutions in DMF, diluted with DMEM to the desired concentration (final DMF concentration of 0.1% (v/v))] were added to reach the indicated concentrations. After another 72 h of incubation, the cellular metabolic activity was measured employing an MTT assay. By adding predissolved MTT reagent in PBS at a final concentration of 0.5 mg/mL, the metabolic activity can be determined via an enzymatic conversion to a purple formazan salt. After 3 h, the medium was aspirated, and 200 μL of DMSO was added to dissolve the formed formazan crystals. The absorbance was measured at 570 and 690 nm (turbidity assessment) using an EnSpire plate reader (PerkinElmer, Waltham, MA, USA). Solvent-treated cells without a compound served as the positive control. Metabolic activity was calculated by the following equation [drawing 1]

[3] = biological target: T1, ERβ ligand-binding domain (Homo sapiens, UniProt Q92731); assay: TR-FRET ligand binding assay, isolated LBD of ERβ
T1 construct: purchased Invitrogen
Experimental: A modified LanthaScreen TR-FRET alpha/beta assay was performed, according to the manufacturer’s protocol (Invitrogen, Carlsbad, […]), to determine the binding affinity to the isolated LBD. […] Measurements were carried out on a multimode plate reader, Tecan Spark (Tecan, Männedorf, Switzerland). Calculations and visualization were performed with GraphPad Prism 8.0 (GraphPad Software, San Diego, CA, USA).

T1 sequence (Q92731 264-498 limits assumed): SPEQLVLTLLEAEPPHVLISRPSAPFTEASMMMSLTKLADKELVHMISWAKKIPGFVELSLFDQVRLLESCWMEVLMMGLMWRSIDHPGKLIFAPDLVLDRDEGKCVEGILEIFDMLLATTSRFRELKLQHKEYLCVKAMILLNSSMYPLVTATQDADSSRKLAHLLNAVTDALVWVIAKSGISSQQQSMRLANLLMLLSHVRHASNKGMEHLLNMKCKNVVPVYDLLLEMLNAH

**Q.** Which results are given for `CCC(=C(c1ccc(O)cc1)c1ccc(C=CC(=O)OCCC[CH]2[CH2][Pt-]2([Cl])([Cl])[Cl])cc1)c1ccccc1.[K+]` (mixture of isomers) [GW7604-Pent-PtCl3, Potassium trichlorido[η^2-(pent-4-en-1-yl (E)-3-(4-((E/Z)-1-(4-hydroxyphenyl)-2-phenylbut-1-en-1-yl)phenyl)acrylate)]platinate(II)]?
**A.** ER downregulation (SERD effect) [1]: nor downregulated the ER content; IC50 [2]: > 30 µM; RBA (ERβ) ([3]; RBA(E2) = 100%): 6.02%; IC50 ([3]; read-out: IC50 (ERβ), displacement from the LBS): 3.99 nM
